In this experiment the test system is STING pathway. As to the kind of experiment: STING reporter assay: luciferase reporter activity in THP1-Dual KO-IFNAR2 cells activated with 2'3'cGAMP. Type of experiment: cell-based. The conditions noted are these: Homo sapiens, 2'3'cGAMP 15 μM, 24 h, read-out: hSTING EC50. On the procedure:
STING pathway activation by the compounds described herein was measured using THP1-Dual™ cells (KO-IFNAR2).
THP1-Dual™ KO-IFNAR2 Cells (obtained from invivogen) were maintained in RPMI, 10% FCS, 5 ml P/S, 2 mM L-glut, 10 mM Hepes, and 1 mM sodium pyruvate. Compounds were spotted in empty 384 well tissue culture plates (Greiner 781182) by Echo for a final concentration of 0.0017-100 μM. Cells were plated into the TC plates at 40 μL per well, 2×10E6 cells/mL. For activation with STING ligand, 2′3′cGAMP (MW 718.38, obtained from Invivogen), was prepared in Optimem media.
The following solutions were prepared for each 1×384 plate: • Solution A: 2 mL Optimem with one of the following stimuli: • 60 μL of 10 mM 2′3′cGAMP→150 μM stock • Solution B: 2 mL Optimem with 60 μL Lipofectamine 2000→Incubate 5 min at RT
2 mL of solution A and 2 ml Solution B was mixed and incubated for 20 min at room temperature (RT). 20 μL of transfection solution (A+B) was added on top of the plated cells, with a final 2′3′cGAMP concentration of 15 μM. The plates were then centrifuged immediately at 340 g for 1 minute, after which they were incubated at 37° C., 5% CO2,>98% humidity for 24 h. Luciferase reporter activity was then measured. EC50 values were calculated by using standard methods known in the art.
Luciferase reporter assay: 10 μL of supernatant from the assay was transferred to white 384-plate with flat bottom and squared wells. One pouch of QUANTI-Luc™ Plus was dissolved in 25 mL of water. 100 μL of QLC Stabilizer per 25 mL of QUANTI-Luc™ Plus solution was added. 50 μL of QUANTI-Luc™ Plus/QLC solution per well was then added. Luminescence was measured on a Platereader (e.g., Spectramax I3X (Molecular Devices GF3637001)).
Luciferase reporter activity was then measured. EC50 values were calculated by using standard methods known in the art.
A general note: Reporter assays use an easily measured gene product as a stand-in for the process of interest.

What is called EC50 is the midpoint of the concentration-response curve. For `O=C(Nc1c[nH]c2cc(F)c(F)cc12)c1cccc(OC2CCOCC2)n1` [Compound 124, N-(5,6-difluoro-1H-indol-3-yl)-6-(oxan-4-yloxy)pyridine-2-carboxamide], the concentration for a half-maximal effect (EC50) fell in the range of 5 to 100 µM.
Next, `O=C(Nc1c[nH]c2cc(F)c(F)cc12)c1cccc(NCCCC(F)(F)F)c1` [Compound 169, N-(5,6-difluoro-1H-indol-3-yl)-3-((4,4,4-trifluorobutyl)amino)benzamide]: 0.2 to 1 µM; `O=C(Nc1c[nH]c2cc(F)c(F)cc12)c1ccc(OC(F)(F)F)c(Cl)c1` [Compound 114, 3-chloro-N-(5,6-difluoro-1H-indol-3-yl)-4-(trifluoromethoxy)benzamide]: 0.2 to 1 µM; `CC(C)Oc1ccc(C(=O)Nc2c[nH]c3cc(F)c(F)cc23)cc1C(F)(F)F` [Compound 126, N-(5,6-difluoro-1H-indol-3-yl)-4-(propan-2-yloxy)-3-(trifluoromethyl)benzamide]: 0.2 to 1 µM.
On to `O=C(Nc1c[nH]c2cc(F)c(F)cc12)c1ccc(OCC(F)(F)F)c(F)c1` [Compound 134, N-(5,6-difluoro-1H-indol-3-yl)-3-fluoro-4-(2,2,2-trifluoroethoxy)benzamide], for which the half-maximal effective concentration (EC50) lay within 0.2 to 1 µM.
On to `CC(C)Oc1ccc(C(=O)Nc2c[nH]c3cc(F)c(F)cc23)cc1` [Compound 128, N-(5,6-difluoro-1H-indol-3-yl)-4-isopropoxybenzamide], for which the 50% effective concentration (EC50) lay within 0.2 to 1 µM.
For the compound `O=C(Nc1c[nH]c2cc(F)c(F)cc12)c1cccc(OC(F)F)c1` [Compound 121, N-(5,6-difluoro-1H-indol-3-yl)-3-(difluoromethoxy)benzamide], the half-maximal effective concentration (EC50) is 1 to 5 µM.
As for `O=C(Nc1c[nH]c2cc(F)c(F)cc12)c1ccc(OCC(F)(F)F)cc1` [Compound 152, N-(5,6-difluoro-1H-indol-3-yl)-4-(2,2,2-trifluoroethoxy)benzamide], the half-maximal effective concentration (EC50) is 0.2 to 1 µM.
Next, `Cc1ncc(C(=O)Nc2c[nH]c3cc(F)c(F)cc23)cc1NCCCC(F)(F)F` [Compound 243, N-(5,6-difluoro-1H-indol-3-yl)-6-methyl-5-((4,4,4-trifluorobutyl)amino)nicotinamide]: 0.2 to 1 µM.
Take `Cc1cc(C(=O)Nc2c[nH]c3cc(F)c(F)cc23)cnc1N1CC2(CCOC2)C1` [Compound 207, N-(5,6-difluoro-1H-indol-3-yl)-5-methyl-6-(6-oxa-2-azaspiro[3.4]octan-2-yl)nicotinamide]: the EC50 was 1 to 5 µM.
Regarding `O=C(Nc1c[nH]c2cc(F)c(F)cc12)c1cnc(C2CC3(CC(OCC(F)(F)F)C3)C2)c(F)c1` (stereo not drawn) [Compound 222, N-(5,6-difluoro-1H-indol-3-yl)-5-fluoro-6-(6-(2,2,2-trifluoroethoxy)spiro[3.3]heptan-2-yl)nicotinamide], the EC50 was in the range of 0.2 to 1 µM.
Regarding `O=C(Nc1c[nH]c2cc(F)c(F)cc12)c1ccc(CN2CC3(C2)CC(F)(F)C3)c(F)c1` [Compound 237, N-(5,6-difluoro-1H-indol-3-yl)-4-((6,6-difluoro-2-azaspiro[3.3]heptan-2-yl)methyl)-3-fluorobenzamide], the EC50 lay within 0.2 to 1 µM.
With `O=C(Nc1c[nH]c2cc(F)c(F)cc12)c1cnc(N2CCC(OC(F)(F)F)CC2)cn1` [Compound 182, N-(5,6-difluoro-1H-indol-3-yl)-5-(4-(trifluoromethoxy)piperidin-1-yl)pyrazine-2-carboxamide], the half-maximal effective concentration (EC50) is 0.04 to 0.2 µM.
Next, `Cc1cc(C(=O)Nc2c[nH]c3cc(F)c(F)cc23)cc(C2CCCCC2)n1` [Compound 186, 2-cyclohexyl-N-(5,6-difluoro-1H-indol-3-yl)-6-methylisonicotinamide]: 1 to 5 µM; `Cc1cc(C(=O)Nc2c[nH]c3cc(F)c(F)cc23)cc(N2CCC(F)(F)CC2)n1` [Compound 175, N-(5,6-difluoro-1H-indol-3-yl)-2-(4,4-difluoropiperidin-1-yl)-6-methylisonicotinamide]: 5 to 100 µM; `O=C(Nc1c[nH]c2cc(F)c(F)cc12)c1cnc(NCCC(F)(F)F)c(F)c1` [Compound 242, N-(5,6-difluoro-1H-indol-3-yl)-5-fluoro-6-((3,3,3-trifluoropropyl)amino)nicotinamide]: 0.2 to 1 µM.
Regarding `CC(C)(C)OC(=O)N1CCC(Oc2ccc(C(=O)Nc3c[nH]c4cc(F)c(F)cc34)cc2)CC1` [Compound 249, tert-butyl 4-{4-[(5,6-difluoro-1H-indol-3-yl)carbamoyl]phenoxy}piperidine-1-carboxylate], the EC50 lay within 0.2 to 1 µM.
As to `COCc1cccc(-n2cc(-c3ccc4[nH]cc(NC(=O)c5ccc(OCCCC(F)(F)F)cc5)c4c3)cn2)c1` [Compound 200, N-(5-(1-(3-(methoxymethyl)phenyl)-1H-pyrazol-4-yl)-1H-indol-3-yl)-4-(4,4,4-trifluorobutoxy)benzamide], the EC50 lay in the range of 0.2 to 1 µM.
Next, `O=C(Nc1c[nH]c2cc(F)c(F)cc12)c1ccn(Cc2ccc(C(F)(F)F)cc2)c(=O)n1` [Compound 193, N-(5,6-difluoro-1H-indol-3-yl)-2-oxo-1-[[4-(trifluoromethyl)phenyl]methyl]pyrimidine-4-carboxamide]: 1 to 5 µM; `O=C(Nc1c[nH]c2cc(F)c(F)cc12)c1ccc(C2CCC(F)(F)CC2)c(Cl)c1` [Compound 166, 3-chloro-N-(5,6-difluoro-1H-indol-3-yl)-4-(4,4-difluorocyclohexyl)benzamide]: 0.2 to 1 µM; `Cc1cc(C(=O)Nc2c[nH]c3cc(F)c(F)cc23)cc(C)c1C1CCC(F)(F)CC1` [Compound 278, N-(5,6-difluoro-1H-indol-3-yl)-4-(4,4-difluorocyclohexyl)-3,5-dimethylbenzamide]: 1 to 5 µM.
The same measure for `O=C(Nc1c[nH]c2cc(F)c(F)cc12)c1ccc(C2(O)CCOCC2)cc1` [Compound 248, N-(5,6-difluoro-1H-indol-3-yl)-4-(4-hydroxytetrahydro-2H-pyran-4-yl)benzamide]: 5 to 100 µM.
With `N#Cc1ccc2[nH]cc(NC(=O)c3ccc(OCCCC(F)(F)F)c(F)c3)c2c1` [Compound 145, N-(5-cyano-1H-indol-3-yl)-3-fluoro-4-(4,4,4-trifluorobutoxy)benzamide], the EC50 is 0.2 to 1 µM.
On to `O=C(Nc1c[nH]c2cc(F)c(F)cc12)c1cnc(N2CC3(CC(OCC(F)(F)F)C3)C2)c(F)c1` [Compound 221, N-(5,6-difluoro-1H-indol-3-yl)-5-fluoro-6-(6-(2,2,2-trifluoroethoxy)-2-azaspiro[3.3]heptan-2-yl)nicotinamide], for which the 50% effective concentration (EC50) is 0.04 to 0.2 µM.
The same measure for `Cc1cc(C(=O)Nc2c[nH]c3cc(F)c(F)cc23)ccc1OC1CC(F)(F)C1` [Compound 165, N-(5,6-difluoro-1H-indol-3-yl)-4-(3,3-difluorocyclobutoxy)-3-methylbenzamide]: 0.04 to 0.2 µM; for `O=C(Nc1c[nH]c2cc(F)c(F)cc12)c1ccc(C2CCC(F)(F)CC2)cc1` [Compound 158, N-(5,6-difluoro-1H-indol-3-yl)-4-(4,4-difluorocyclohexyl)benzamide]: 0.04 to 0.2 µM.
On to `COc1ccc2[nH]cc(NC(=O)c3ccc(OCCCC(F)(F)F)c(F)c3)c2n1` [Compound 143, 3-fluoro-N-(5-methoxy-1H-pyrrolo[3,2-b]pyridin-3-yl)-4-(4,4,4-trifluorobutoxy)benzamide], for which the 50% effective concentration (EC50) fell in the range of 1 to 5 µM.
Consider `O=C(Nc1c[nH]c2cc(F)c(F)cc12)c1ccc(Cl)c(OCCCC(F)(F)F)c1` [Compound 170, 4-chloro-N-(5,6-difluoro-1H-indol-3-yl)-3-(4,4,4-trifluorobutoxy)benzamide], for which the EC50 was in the range of 0.2 to 1 µM.
On to `O=C(Nc1c[nH]c2cc(F)c(F)cc12)c1ccc(Oc2cccnc2)cc1` [Compound 118, N-(5,6-difluoro-1H-indol-3-yl)-4-(pyridin-3-yloxy)benzamide], for which the EC50 was 0.2 to 1 µM.
In the case of `O=C(Nc1c[nH]c2cc(F)c(F)cc12)c1ccc(OC(F)(F)C(F)F)cc1` [Compound 268, N-(5,6-difluoro-1H-indol-3-yl)-4-(1,1,2,2-tetrafluoroethoxy)benzamide], the EC50 lay within 0.2 to 1 µM.
Consider `O=C(Nc1c[nH]c2ncc(F)cc12)c1ccc(OCCCC(F)(F)F)c(F)c1` [Compound 144, 3-fluoro-N-(5-fluoro-1H-pyrrolo[2,3-b]pyridin-3-yl)-4-(4,4,4-trifluorobutoxy)benzamide], for which the EC50 was 1 to 5 µM.
For `O=C(Nc1c[nH]c2cc(F)c(F)cc12)c1cnc(N2CCC(F)(F)CC2)c(F)c1` [Compound 154, N-(5,6-difluoro-1H-indol-3-yl)-6-(4,4-difluoropiperidin-1-yl)-5-fluoronicotinamide], the concentration for a half-maximal effect (EC50) fell in the range of 0.2 to 1 µM.
Consider `O=C(Nc1c[nH]c2cc(F)c(F)cc12)c1ccc(OC2CN(CC(F)(F)F)C2)nc1` [Compound 246, N-(5,6-difluoro-1H-indol-3-yl)-6-((1-(2,2,2-trifluoroethyl)azetidin-3-yl)oxy)nicotinamide], for which the half-maximal effective concentration (EC50) is 0.2 to 1 µM.

The values above are taken from patent US20230250106A1, “COMPOUNDS AND COMPOSITIONS FOR TREATING CONDITIONS ASSOCIATED WITH STING ACTIVITY” (IFM Due, Inc., priority 2020, published 2023).
